Data taken from patent US6716987B1, “Derivatives of benzofuran or benzodioxazole compounds” (Kyowa Hakko Kogyo Co., Ltd., priority 1995, dated 2004).
Counter-ions that a name gives are not always drawn.

Columns and labels:
[1] = system: cAMP-specific phosphodiesterase (PDE IV); experiment: Inhibition of the PDE IV enzyme derived from a dog trachea; assay type: biochemical; conditions: test compound 10^−6 M; PDE IV from dog tracheal smooth muscle; substrate cAMP 1 μM
Description: cAMP-specific phosphodiesterase (PDE IV) was purified from a dog tracheal smooth muscle according to the method of Torphy et al. [Molecular Pharmacol., 37, 206-214 (1990)]. The PDE activity was measured by the following two steps according to the method of Kincaid and Manganiello et al. [Method in Enzymology (J. D. Corbin and R. A. Jonson, Eds.), 199, 457-470 (1988)]. Using [^3]cAMP (at a final concentration of 1 μM) as a substrate, the reaction was carried out in a standard mixture containing N,N-bis(2-hydroxyethyl)-2-aminoethanesulfonic acid (50 mM, pH=7.2), MgCl2 (1 mM), and soybean trypsin inhibitor (0.1 mg/ml). The reaction was initiated by adding the enzyme, followed by incubation at 30° C. for 10 to 30 minutes. After stopping the reaction with hydrochloric acid, the generated […] was completely converted to adenosine by 5′-nucleotidase.
The resultant was subjected to chromatography on DEAE-Sephadex A-25, and radio activity of the eluted [^3H] adenosine was counted using a scintillation counter. Each of the test drugs was dissolved in DMSO (final concentration 1.7%) and then added to the mixture.

| Compound | melting point | Enzyme Inhibitory Activity (%, 10^−6 M) [1] [%] |
| --- | --- | --- |
| COc1ccc(/C=C/C(=O)Nc2ccncc2)c2c1OC1(CCCC1)C2 | 124 to 128 °C | – |
| COc1ccc(C(=O)Nc2ccncc2)c2cc(-c3ccccn3)oc12.Cl.Cl [Compound 41, 7-Methoxy-2-(2-pyridyl)-4-[(4-pyridylamino)carbonyl]-benzofuran.2 hydrochloride] | – | 58 |
| COc1ccc(C(=O)Cc2c(Cl)cncc2Cl)c2c1OC(c1ccccc1)(c1ccccc1)O2 | 156 to 157 °C | – |
| COC(=O)c1ccc(-c2ccc(OC)c3c2CC(C)(C)O3)cc1 | 116 to 122 °C | – |
| COc1ccc(CNc2ccncc2)c2c1OCC2C (racemic) | 138 to 145 °C | – |
| COc1ccc(C(=O)Cc2ccncc2)c2c1OCCCO2.Cl | 205 to 208 °C | – |
| CCC1(CC)Cc2c(CCc3c(Cl)cncc3Cl)ccc(OC)c2O1.CS(=O)(=O)O [Compound 50, 4-[2-(3,5-Dichloro-4-pyridyl)ethyl]-2,2-diethyl-7-methoxy-2,3-dihydrobenzofuran.methanesulfonate] | – | 69 |
| COc1ccc(C(C#N)Cc2ccncc2)c2c1OC1(CCCC1)C2.Cl (racemic) [Compound 64, (±)-4-[1-Cyano-2-(4-pyridyl)ethyl]-7-methoxy-spiro[2,3-dihydrobenzofuran-2,1′-cyclopentane].hydrochloride] | – | 78 |
| COC(=O)c1cccc(-c2ccc(OC)c3c2CC(C)(C)O3)c1 | 89 to 91 °C | – |
| COc1ccc(C(=O)Nc2c(F)cccc2F)c2c(CC(=O)OCc3ccccc3)coc12 | 223 to 224 °C | – |
| CCN1CCN(C(=O)c2cc3c(C(=O)Cc4c(Cl)cncc4Cl)ccc(OC)c3o2)CC1.O=C(O)/C=C/C(=O)O | 196 to 197 °C | – |
| COc1ccc(C(=O)Cc2ccncc2)c2c1OCCO2.Cl | 226 to 228 °C | – |
| COc1ccc(C(=Cc2ccncc2)c2ccccc2)c2c1OC(C)(C)C2 [Compound 70, 7-Methoxy-2,2-dimethyl-4-[1-phenyl-2-(4-pyridyl)-ethenyl]-2,3-dihydrobenzofuran] | – | 68 |
| CCOC(=O)c1cccc(NC(=O)c2ccc(OC)c3c2OCCO3)c1 | 174 to 175 °C | – |
| COc1ccc(C(=O)Nc2c(Cl)cncc2Cl)c2c1OCC2CC(=O)Nc1cccnc1 (racemic) [Compound 19, (±)-4-[(3,5-Dichloro-4-pyridyl)aminocarbonyl]-7-methoxy-3-[(3-pyridyl)aminocarbonyl]methyl-2,3-dihydro-benzofuran] | – | 87 |
| COc1ccc(-c2cccc(C(=O)O)c2)c2c1OC(C)(C)C2 | 220 to 225 °C | – |
| COc1ccc(C(=O)Nc2c(Cl)cncc2Cl)c2c1CC1(CCCC1)O2 | 156 to 158 °C | – |
| COc1ccc(C(=O)Nc2c(Cl)cncc2Cl)c2c1OCC2CC(=O)NCc1ccccn1 (racemic) [Compound 24, (±)-4-[(3,5-Dichloro-4-pyridyl)aminocarbonyl]-7-methoxy-3-[(2-pyridylmethyl)aminocarbonyl]methyl-2,3-dihydrobenzofuran] | – | 80 |
| COc1ccc(/C=C/c2c(Cl)cncc2Cl)c2c1OC1(CCCCC1)C2.CS(=O)(=O)O [Compound 76, (E)-4-[2-(3,5-Dichloro-4-pyridyl)ethenyl]-7-methoxy-spiro[2,3-dihydrobenzofuran-2,1′-cyclohexane].methanesulfonate] | – | 93 |
| COc1ccc(C(=O)Nc2ccncc2)c2cc(-c3ccncc3)oc12.Cl.Cl [Compound 39, 7-Methoxy-2-(4-pyridyl)-4-(4-pyridylaminocarbonyl)-benzofuran.2 hydrochloride] | – | 77 |
| COc1ccc(C(Cc2ccncc2)c2ccccc2)c2c1OC1(CCCC1)O2.Cl (stereo not drawn) [Compound 137, 4-Methoxy-7-[1-phenyl-2-(4-pyridyl)ethyl]-spiro[1,3-benzodioxole-2,1′-cyclopentane].hydrochloride] | – | 61 |

| Compound | melting point | Enzyme Inhibitory Activity (%, 10^−6 M) [1] [%] |
| --- | --- | --- |
| COc1ccc(C(=O)Cc2ccncc2)c2c(-c3ccccc3)coc12.Cl [Compound 118, 7-Methoxy-4-[1-oxo-2-(4-pyridyl)ethyl]-3-phenyl-benzofuran.hydrochloride] | – | 80 |
| COc1ccc(C(=O)Cc2ccncc2)c2c1OC1(CCCC1)CC2.Cl [Compound 127, 8-Methoxy-5-[1-oxo-2-(4-pyridyl)ethyl]-spiro[3,4-dihydrobenzopyran-2,1′-cyclopentane].hydrochloride] | – | 70 |
| COc1ccc(C(=O)Nc2cccc(C(=O)O)c2)c2cc(C(=O)c3ccccc3)oc12 | 262 to 263 °C | – |
| COc1ccc(/C=C/c2ccncc2)c2c1OCC2C (racemic) [Compound 79, (E)-(±)-7-Methoxy-3-methyl-4-[2-(4-pyridyl)ethenyl]-2,3-dihydrobenzofuran] | – | 45 |
| CCC1(CC)Cc2c(/C=C/c3c(Cl)cncc3Cl)ccc(OC)c2O1.CS(=O)(=O)O [Compound 71, (E)-2,2-Diethyl-7-methoxy-4-[2-(3,5-dichloro-4-pyridyl)ethenyl]-2,3-dihydrobenzofuran.methanesulfonate] | – | 87 |
| COc1ccc(C(=O)Cc2ccncc2)c2c1CC1(CCCC1)O2 | 101 to 103 °C | – |
| COc1ccc(CCc2ccncc2)c2c1OCCCO2.Cl | 185 to 187 °C | – |
| COc1ccc(C(=O)Nc2c(C)cccc2C)c2c(CC(=O)OCc3ccccc3)coc12 | 202 to 204 °C | – |
| COc1ccc(C(=O)Nc2ccncc2)c2c1OC(C)(C)O2 | 180 to 181 °C | – |
| COc1ccc(C(C)=Cc2ccncc2)c2c1OC1(CCCC1)C2 (as salt: salt) [Compound 75, 7-Methoxy-4-[1-methyl-2-(4-pyridyl)ethenyl]-spiro[2,3-dihydrobenzofuran-2,1′-cyclopentane]] | 85 to 87 °C | – |
| COc1ccc(C(=O)Cc2c(Cl)cncc2Cl)c2cc(C(=O)c3ccccc3)oc12 | 213 to 215 °C | – |
| COc1ccc(C(=O)Cc2c(Cl)cccc2Cl)c2cc(C(=O)N(C)c3cccc(F)c3)oc12 | 198 to 199 °C | – |
| COc1ccc(C(=O)Cc2c(Cl)cncc2Cl)c2c1OC(C)(C)O2 | 133 to 134 °C | – |
| COc1ccc(C(=O)Nc2c(Cl)cncc2Cl)c2c1OCC2 | 196 to 197 °C | – |
| CCOC(=O)Cc1coc2c(OC)ccc(C(=O)Cc3ccncc3)c12 | 111 to 117 °C | – |
| COc1ccc(C(=O)Nc2c(Cl)cncc2Cl)c2c1OCCO2 | 143 to 145 °C | – |
| CCOC(=O)Cc1coc2c(OC)ccc(C(=O)Cc3c(Cl)cncc3Cl)c12 | 105 to 115 °C | – |
| COc1ccc(/C=C/c2c(Cl)cncc2Cl)c2c1OC(C)(C)C2 | 114 to 118 °C | – |
| COc1ccc(C(=O)Cc2c(Cl)cncc2Cl)c2c1OCC2CC(=O)OCc1ccccc1 (stereo not drawn) | 120 to 122 °C | – |
| COC1(OC)CC=C(C(Cc2ccncc2)c2ccccc2)C2=C1OC(C)(C)C2 (racemic) [Compound 47, (±) 7-Methoxy-2,2-dimethyl-7-methoxy-4-[1-phenyl-2-(4-pyridyl)ethyl]-2,3-dihydrobenzofuran] | 78 to 81 °C | – |
| COc1ccc(C(=O)Cc2c(Cl)cncc2Cl)c2c1OCCO2 | 158 to 160 °C | – |

| Compound | melting point | Enzyme Inhibitory Activity (%, 10^−6 M) [1] [%] |
| --- | --- | --- |
| COc1ccc(C(=O)Cc2c(Cl)cccc2Cl)c2c1OCCO2 | 154 to 155 °C | – |
| COc1ccc(C(=O)Nc2c(Cl)cncc2Cl)c2cc(Cc3ccccc3)oc12 | 141 to 142 °C | – |
| COc1ccc(C(=O)Nc2cccc(C(=O)O)c2)c2c1OCCO2 | 283 to 284 °C | – |
| COc1ccc(C(=O)Cc2c(Cl)cncc2Cl)c2c(CC(=O)OCc3ccccc3)coc12 | 132 to 133 °C | – |
| COc1ccc(-c2ccc(C(=O)O)cc2)c2c1OCCO2 | 281 to 284 °C | – |
| COc1ccc(C(=O)Nc2c(Cl)cncc2Cl)c2c1OCCCO2 | 149 to 150 °C | – |
| COc1ccc(/C=C/c2c(Cl)cncc2Cl)c2cc(-c3ccncc3)oc12 | 204 to 206 °C | – |
| CCOC(=O)Cc1coc2c(OC)ccc(C(=O)Cc3c(Cl)cccc3Cl)c12 | 153 to 154 °C | – |
| CCOC(=O)c1ccc(-c2ccc(OC)c3c2OCCO3)cc1 | 141 to 141.5 °C | – |
| COc1ccc(C(=O)Cc2c(Cl)cncc2Cl)c2cc(C#N)oc12 | 197 to 199 °C | – |
| COc1ccc(C(=O)Nc2c(Cl)cccc2Cl)c2c1OCCO2 | 176 to 177 °C | – |
| COc1ccc(C(=O)Cc2c(Cl)cncc2Cl)c2c1OC(C)(C)C2 | 127 to 131 °C | – |
| COc1ccc(C(=O)Nc2ccncc2)c2c1CC1(CCCC1)O2.CS(=O)(=O)O | 164 °C (dec.) | – |
| COc1ccc(C=C(C#N)C#N)c2c1OC(C)(C)C2 | 198 to 200 °C | – |
| COc1ccc(/C=C/c2c(Cl)cncc2Cl)c2c1OCC2C (racemic) | 117 to 118 °C | – |
| COc1ccc(C(=O)Cc2c(Cl)cncc2Cl)c2c1OCO2 | 170 to 171 °C | – |
| COc1ccc(C(C)=Cc2ccncc2)c2c1OC(C)(C)C2 | 85 to 87 °C | – |
| COc1ccc(-c2ccc(C(=O)O)cc2)c2c1OC(C)(C)C2 | 249 to 252 °C | – |
| COc1ccc(C(=O)Cc2c(Cl)cncc2Cl)c2c(CC(=O)O)coc12 | 192 to 194 °C | – |
| COc1ccc(C(=O)Nc2c(Cl)cncc2Cl)c2c1OCCCCO2 | 115 to 117 °C | – |
| COc1ccc(C(=O)Cc2ccncc2)c2c1OC(C)(C)C2 | 107 to 111 °C | – |
